Measurements from ChEMBL document CHEMBL1201862, “PubChem BioAssay data set” (2004).
Active and inactive are the calls of the source.

Key:
[1] = A cytotoxicity screen of small molecule inhibitors of the PhoP region in Salmonella typhi identified in the primary screen. [Related pubchem assays: 1850, 1864, 1985 ]; assay type: functional
[2] = target: T1, Estrogen receptor (Homo sapiens, UniProt P03372);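 also: potency for inhibiting coactivator peptide recruitment to the receptor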
T1 sequence (P03372 whole entry): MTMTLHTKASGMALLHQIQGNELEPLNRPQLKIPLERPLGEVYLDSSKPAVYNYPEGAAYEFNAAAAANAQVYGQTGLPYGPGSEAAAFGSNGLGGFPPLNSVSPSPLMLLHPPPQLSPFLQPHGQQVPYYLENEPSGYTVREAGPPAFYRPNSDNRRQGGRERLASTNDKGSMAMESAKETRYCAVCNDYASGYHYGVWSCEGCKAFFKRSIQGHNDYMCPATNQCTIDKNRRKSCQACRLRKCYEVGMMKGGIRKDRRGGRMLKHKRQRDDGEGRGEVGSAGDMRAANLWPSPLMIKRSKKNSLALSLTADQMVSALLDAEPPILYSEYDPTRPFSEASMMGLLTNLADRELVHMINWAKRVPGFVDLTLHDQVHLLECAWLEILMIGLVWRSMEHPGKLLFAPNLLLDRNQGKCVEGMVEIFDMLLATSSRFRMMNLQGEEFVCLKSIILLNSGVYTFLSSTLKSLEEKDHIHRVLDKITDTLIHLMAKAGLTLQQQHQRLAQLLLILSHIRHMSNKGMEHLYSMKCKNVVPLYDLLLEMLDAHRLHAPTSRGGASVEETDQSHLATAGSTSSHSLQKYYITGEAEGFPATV

[3] = tested on: Streptococcus; assay: GAS UMAA2166 growth inhibition – luminescence, BacTiterGlo, counter-screen for streptokinase expression inhibitor project, dose response (AID 1915); assay type: functional, organism-based;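 also: potency for reduction of bacterial viability or growth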
[4] = target: T2, Histone-lysine N-methyltransferase NSD2 (Homo sapiens, UniProt O96028); assay type: biochemical
T2 sequence (O96028 whole entry): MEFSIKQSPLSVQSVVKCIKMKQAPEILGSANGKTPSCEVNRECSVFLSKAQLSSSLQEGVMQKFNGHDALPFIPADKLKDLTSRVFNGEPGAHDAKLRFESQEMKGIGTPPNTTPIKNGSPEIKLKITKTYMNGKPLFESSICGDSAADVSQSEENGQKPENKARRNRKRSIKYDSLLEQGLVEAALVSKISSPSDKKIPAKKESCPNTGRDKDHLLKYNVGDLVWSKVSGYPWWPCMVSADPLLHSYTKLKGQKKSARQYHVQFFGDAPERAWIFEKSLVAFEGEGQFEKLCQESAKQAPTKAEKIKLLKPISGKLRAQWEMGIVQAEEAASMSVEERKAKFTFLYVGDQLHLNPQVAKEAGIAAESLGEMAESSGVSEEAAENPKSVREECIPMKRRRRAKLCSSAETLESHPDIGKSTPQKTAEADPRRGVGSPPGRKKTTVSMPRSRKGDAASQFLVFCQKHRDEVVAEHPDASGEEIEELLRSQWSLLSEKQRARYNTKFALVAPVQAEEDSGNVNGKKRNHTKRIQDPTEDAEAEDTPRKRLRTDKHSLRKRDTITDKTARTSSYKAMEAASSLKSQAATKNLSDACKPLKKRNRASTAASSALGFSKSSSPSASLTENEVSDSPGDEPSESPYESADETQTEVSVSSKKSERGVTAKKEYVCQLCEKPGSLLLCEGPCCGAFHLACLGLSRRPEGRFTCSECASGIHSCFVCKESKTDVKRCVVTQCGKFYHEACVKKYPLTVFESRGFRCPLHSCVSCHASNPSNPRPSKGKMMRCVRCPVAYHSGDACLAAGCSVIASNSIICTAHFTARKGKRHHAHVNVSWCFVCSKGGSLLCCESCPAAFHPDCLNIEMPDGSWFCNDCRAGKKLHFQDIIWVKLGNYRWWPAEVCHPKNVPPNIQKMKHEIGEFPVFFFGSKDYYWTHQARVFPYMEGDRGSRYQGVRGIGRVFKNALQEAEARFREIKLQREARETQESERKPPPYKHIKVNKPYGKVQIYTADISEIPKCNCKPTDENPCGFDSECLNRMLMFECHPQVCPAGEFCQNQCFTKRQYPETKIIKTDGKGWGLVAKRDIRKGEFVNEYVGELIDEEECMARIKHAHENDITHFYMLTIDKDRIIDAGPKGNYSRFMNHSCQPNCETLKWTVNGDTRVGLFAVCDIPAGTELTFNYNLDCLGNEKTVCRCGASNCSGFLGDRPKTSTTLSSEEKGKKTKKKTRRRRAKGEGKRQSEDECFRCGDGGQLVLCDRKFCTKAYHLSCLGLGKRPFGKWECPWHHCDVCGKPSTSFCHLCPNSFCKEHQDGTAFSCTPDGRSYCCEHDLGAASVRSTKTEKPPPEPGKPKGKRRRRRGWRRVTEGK

[5] = viability of uninfected HEp-2 cells – cell-based, HTS, cytotoxicity control for RSV inhibitor project, dose response (AID 2410); assay type: functional; conditions: human respiratory syncytial virus
[6] = target: T3, Streptokinase A (Streptococcus pyogenes serotype M1, UniProt P10520); assay: viability-normalized secreted streptokinase activity reduction – plasminogen activation absorbance, OD405, dose response (AID 1914); assay type: functional, Streptococcus pyogenes M1 GAS;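 also: secreted streptokinase activity via plasminogen activation per viability signal from cell pellet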
T3 sequence (P10520 whole entry): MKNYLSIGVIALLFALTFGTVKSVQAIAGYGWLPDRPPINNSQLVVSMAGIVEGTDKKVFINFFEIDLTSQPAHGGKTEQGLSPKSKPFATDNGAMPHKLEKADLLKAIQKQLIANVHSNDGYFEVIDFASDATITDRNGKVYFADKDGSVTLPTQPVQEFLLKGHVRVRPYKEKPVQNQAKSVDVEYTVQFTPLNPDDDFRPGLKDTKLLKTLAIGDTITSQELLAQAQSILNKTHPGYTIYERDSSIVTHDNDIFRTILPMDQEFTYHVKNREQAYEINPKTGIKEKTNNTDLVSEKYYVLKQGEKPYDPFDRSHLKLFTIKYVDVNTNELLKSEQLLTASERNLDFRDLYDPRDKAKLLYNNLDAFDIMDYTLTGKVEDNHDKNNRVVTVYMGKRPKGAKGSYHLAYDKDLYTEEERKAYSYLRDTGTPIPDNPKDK

[7] = tested on: Streptococcus sp. 'group A'; assay: Streptococcus pyogenes SK(-)GAS viability under kanamycin – luminescence, BacTiterGlo, confirmation, counter-screen for streptokinase expression inhibitor project, dose response (AID 1900); assay type: functional, organism-based
[8] = cells
[9] = target: Major prion protein (Homo sapiens, UniProt P04156); assay type: functional, cell-based
[10] = HIV-1 Vif–A3G interaction blockers – biochemical, TR-FRET, GST-Vif 1-94, biotin-A3G peptide, dose response retest, primary screen (AID 1117319); assay type: functional;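 also: TR-FRET signal of purified GST-Vif binding a biotinylated A3G peptide; inhibitors lower the FRET signal by blocking Vif and A3G binding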
[11] = target: T4, Endoribonuclease toxin MazF (Escherichia coli K-12, UniProt P0AE70); assay: activation of MazEF endoribonuclease cleavage – biochemical, fluorescence, single-stranded RNA substrate, uHTS hits, dose response (AID 588481); assay type: functional
T4 sequence (P0AE70 whole entry): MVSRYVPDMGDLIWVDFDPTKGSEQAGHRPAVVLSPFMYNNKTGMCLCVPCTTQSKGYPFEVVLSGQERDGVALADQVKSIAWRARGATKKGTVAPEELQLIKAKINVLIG

[12] = target: T4, Endoribonuclease toxin MazF; assay: substrate-only fluorescence increase artefacts – biochemical, single-stranded RNase substrate, counter-screen for MazEF activator project, dose response (AID 588502); assay type: functional
[13] = viability loss in THP-1 monocytes – THP-1 cells, cytotoxicity control for Vif-APOBEC3G degradation inhibitor project, dose response (AID 1117359); assay type: functional; conditions: THP-1
[14] = NIH3T3 cell viability loss – ATP luminescence, mouse fibroblasts, counter-screen, dose response (AID 2010); assay type: functional, cell-based;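 also: cells exposed to compound for about 90 hours before reading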
[15] = Trypanosoma cruzi growth suppression in host cells – NIH3T3 host cells, beta-gal luminescence, confirmation (AID 2044); assay type: functional, cell-based;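 also: intracellular parasites grown in NIH/3T3 mouse fibroblasts as host cells; luminescent beta-galactosidase reporter signal from transgenic T. cruzi replicating inside host cells; inhibitors lower the luminescence signal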
[16] = target: Glyceraldehyde-3-phosphate dehydrogenase (Homo sapiens, UniProt P04406)
[17] = target: T5, Heat shock factor protein 1 (Mus musculus, UniProt P38532); assay: decrease of HSF1-responsive luciferase luminescence – cell-based, NIH3T3, dose retest, confirmation (AID 2382); assay type: functional;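 also: NIH3T3 fibroblasts with HSF1-driven luciferase reporter stressed by proteasome inhibitor MG132; luminescence from HSF1-driven luciferase expression after 8 hours of MG132 stress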
T5 sequence (P38532 whole entry): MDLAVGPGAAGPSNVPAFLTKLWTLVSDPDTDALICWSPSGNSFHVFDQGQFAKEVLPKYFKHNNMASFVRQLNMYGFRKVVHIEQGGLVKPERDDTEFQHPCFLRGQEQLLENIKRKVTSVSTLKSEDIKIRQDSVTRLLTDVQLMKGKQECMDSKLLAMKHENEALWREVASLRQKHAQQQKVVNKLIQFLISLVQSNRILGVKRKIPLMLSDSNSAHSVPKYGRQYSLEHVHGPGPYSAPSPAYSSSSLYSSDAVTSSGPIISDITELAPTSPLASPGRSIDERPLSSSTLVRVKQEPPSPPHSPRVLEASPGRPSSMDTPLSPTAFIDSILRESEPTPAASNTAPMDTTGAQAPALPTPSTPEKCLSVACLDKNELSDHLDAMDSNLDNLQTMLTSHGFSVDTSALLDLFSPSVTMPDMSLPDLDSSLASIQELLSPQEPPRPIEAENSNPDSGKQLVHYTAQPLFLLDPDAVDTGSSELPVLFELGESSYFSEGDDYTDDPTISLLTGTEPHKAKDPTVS

[18] = rise of 2N DNA cells, HeLa – IC50, dose response (AID 1117349); assay type: functional, cell-based
[19] = rise of 4N DNA cells, HeLa – IC50, dose response (AID 1117351); assay type: functional, cell-based
[20] = target: T6, Cytochrome P450 1A2 (Homo sapiens, UniProt P05177);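 also: PubChem cytochrome P450 panel assay, CYP1A2 panel member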
T6 sequence (P05177 whole entry): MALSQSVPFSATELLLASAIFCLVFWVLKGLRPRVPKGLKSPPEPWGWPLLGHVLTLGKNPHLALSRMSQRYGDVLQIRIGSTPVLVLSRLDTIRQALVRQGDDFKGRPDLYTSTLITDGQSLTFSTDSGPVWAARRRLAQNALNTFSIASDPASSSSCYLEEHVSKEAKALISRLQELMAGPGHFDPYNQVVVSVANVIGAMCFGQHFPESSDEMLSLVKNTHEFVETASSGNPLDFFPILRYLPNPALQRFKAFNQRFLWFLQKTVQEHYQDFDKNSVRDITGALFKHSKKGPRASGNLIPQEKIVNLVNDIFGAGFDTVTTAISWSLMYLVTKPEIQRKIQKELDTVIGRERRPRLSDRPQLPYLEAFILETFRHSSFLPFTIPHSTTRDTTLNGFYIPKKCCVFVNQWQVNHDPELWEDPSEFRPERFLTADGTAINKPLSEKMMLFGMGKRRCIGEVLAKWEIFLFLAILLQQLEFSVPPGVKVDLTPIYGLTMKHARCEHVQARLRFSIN

In the case of Cc1cc(C)c([C@@H]2C[C@H]3CN(C4CCCC4)C(=O)[C@]34CCCN24)c(-n2cccn2)c1, the EC50 [1] is reported as > 50 µM (active).
With CCC(C)(C)NC(=O)COc1ccc(C(=O)c2ccccc2)cc1 the EC50 [1] was > 50 µM (active).
With Cc1c(Br)cc(C(=O)NCc2ccco2)c(C)c1C the IC50 [2] was > 50 µM (not active).
With COc1ccc(-c2csc(Nc3ccc(S(=O)(=O)Nc4cc(C)on4)cc3)n2)cc1C the EC50 [3] was 10.7 µM (active), the AC50 [4] was 11.9 µM (active) and the CC50 [5] was 8.8 µM (active). For the same compound, the EC50 [6] was > 150 µM (not active) and the EC50 [7] was 5.7 µM (active).
With Cc1c(Br)c(=O)oc2cc(OCC(=O)N3C[C@H]4C[C@@H](C3)c3cccc(=O)n3C4)ccc12 the IC50 [8] was > 138 µM (inactive) and the IC50 [9] was 8.34 µM (active).
In the case of O=C(Cn1ccc([N+](=O)[O-])n1)N1CCCc2ccccc21, the IC50 [10] is reported as > 100 µM (active).
With Cc1oc(C)c2c(=O)ccc3c(c12)OC(N)=C(C#N)C3c1ccccc1 (centres undefined) the IC50 [10] was > 52.5 µM (active), the EC50 [11] was > 99 µM (inactive) and the EC50 [12] was > 99 µM (inactive). For the same compound, the CC50 [13] was > 40 µM (active).
In the case of CC(=O)Nc1ccc2nc(C)cc(O)c2c1, the IC50 [2] is reported as 21 µM (active).
In the case of CC(=O)NC(CSc1cc(C)nc2ccc(Br)cc12)C(=O)O (centres undefined), the IC50 [8] is reported as > 138 µM (inactive) and the IC50 [9] is reported as 4.48 µM (active).
For NC(=O)C1(N2CCCCC2)CCN(c2nc(-c3ccc(Br)cc3)cs2)CC1, the EC50 [14] was > 60 µM (inconclusive), the IC50 [2] was 37.8 µM (not active) and the EC50 [15] was 1.78 µM (active).
With CC1(C)OC(=O)C(=Cc2ccc(I)o2)C(=O)O1 the IC50 [16] was > 100 µM (not active).
In the case of COC(=O)COc1ccc2c(c1C)O/C(=C\c1ccco1)C2=O, the IC50 [10] is reported as > 100 µM (active) and the EC50 [17] is reported as > 195 µM (not active).
For Cc1cc(O)c2ccccc2c1O [VITAMIN K3H2], the IC50 [18] was > 10 µM (inactive) and the IC50 [19] was > 10 µM (inactive).
With CS(=O)(=O)c1cnc2c(-c3ccsc3)cnn2c1N the EC50 [1] was > 50 µM (active).
With CCCc1nc(SCC(=O)NNC(=O)C2CCCCC2)c2ccccc2n1 the AC50 [20] was 15.8 µM (inconclusive), the IC50 [8] was > 138 µM (inactive) and the IC50 [9] was 0.896 µM (active).
For C=CC(=O)Nc1cc2c(Nc3ccc(F)c(Cl)c3)ncnc2cc1OCCCN1CCOCC1 [CANERTINIB], the IC50 [18] was 8.87 µM (inactive) and the IC50 [19] was > 10 µM (inactive).
With NCCc1c(C(=O)O)[nH]c2ccc(S(N)(=O)=O)cc12 the IC50 [16] was > 100 µM (not active).
In the case of O=C(Cc1cn2ccsc2n1)OCc1nc2ccccc2s1, the IC50 [2] is reported as 6.98 µM (active).
